# Source: US20260158009A1 (GENZYME CORPORATION, priority 2023, published 2026)
# Tests used:
# [1] = system: U937 cells; experiment: Cellular assay in U937 cells: activity of RIPK1 inhibitors on TNFα/zVAD.fmk-induced cell death (necroptosis), CellTiter 96 AQueous (MTS) readout; assay type: cell-based; conditions: Homo sapiens, U-937
# Method in brief: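 Necroptosis was measured by viable-cell MTS reduction (4 h, absorbance 490 nm) after overnight (18–24 h) 37° C culture. Cell suspensions of U937 cells carried TNFα (100 ng/ml) plus zVAD.fmk (50 μM) before compound was added. A 10-point curve (10 μM–0.26 nM or 1 μM–0.07 nM) was run in duplicate, normalised to the control lacking TNFα/zVAD.fmk.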
# [2] = target: T1, hRIPK1 (aa 1-375) fusion protein (Homo sapiens, UniProt Q13546); experiment: ADP-Glo kinase assay: catalytic activity of RIPK1 (autophosphorylation, conversion of ATP to ADP); assay type: biochemical
# T1 construct: hRIPK1 (aa 1-375) fusion protein
# T1 sequence (Q13546 1-375): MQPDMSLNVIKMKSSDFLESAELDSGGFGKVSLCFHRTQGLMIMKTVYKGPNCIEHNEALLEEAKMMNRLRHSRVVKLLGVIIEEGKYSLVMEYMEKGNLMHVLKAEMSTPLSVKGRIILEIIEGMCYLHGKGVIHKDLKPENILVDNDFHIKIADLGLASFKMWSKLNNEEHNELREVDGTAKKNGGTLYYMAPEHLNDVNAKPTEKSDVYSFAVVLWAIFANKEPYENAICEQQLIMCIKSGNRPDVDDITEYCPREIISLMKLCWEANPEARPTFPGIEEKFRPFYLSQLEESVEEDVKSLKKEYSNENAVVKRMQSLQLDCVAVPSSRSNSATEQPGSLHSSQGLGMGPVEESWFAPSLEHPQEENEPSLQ
# Method in brief: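 The readout was ADP-Glo luminescence after a 240 min rt autophosphorylation reaction with 50 μM ATP, following 30 min preincubation of 3.6 μg/ml hRIPK1 (aa 1-375) fusion with compound at 33300-1.69 nM final in 1% DMSO. Values came from Levenberg-Marquardt nonlinear fits.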
Compound,IC50 [1] [nM],IC50 [2] [nM]
"Cc1cn(C[C@H]2CC[C@H](C(=O)N3OCC[C@H]3c3cc(F)cc(C#N)c3)CC2)c2cc(C(N)=O)ccc12 [compound 110, trans-1-((4-((S)-3-(3-cyano-5-fluorophenyl)isoxazolidine-2-carbonyl)cyclohexyl)methyl)-3-methyl-1H-indole-6-carboxamide]",11,22
"Cc1cn(C[C@H]2CC[C@H](C(=O)N3OCC[C@H]3c3cc(F)cc(F)c3)CC2)c2cc(C(N)=O)ccc12 [compound 111, trans-1-((4-((S)-3-(3,5-difluorophenyl)isoxazolidine-2-carbonyl)cyclohexyl)methyl)-3-methyl-1H-indole-6-carboxamide]",10,27
"N#Cc1cc(F)cc([C@@H]2CCON2C(=O)[C@H]2CC[C@H](Cn3cnc4ccc(F)cc43)CC2)c1 [compound 112, trans-3-fluoro-5-((S)-2-(4-((6-fluoro-1H-benzo[d]imidazol-1-yl)methyl)cyclohexane-1-carbonyl)isoxazolidin-3-yl)benzonitrile]",7,23
"O=C([C@H]1CC[C@H](Cn2cnc3ccc(F)cc32)CC1)N1OCC[C@H]1c1cc(F)cc(F)c1 [compound 113, trans-((S)-3-(3,5-difluorophenyl)isoxazolidin-2-yl)(4-((6-fluoro-1H-benzo[d]imidazol-1-yl)methyl)cyclohexyl)methanone]",3,24
"Cc1ccc([C@@H]2CCON2C(=O)[C@H]2C[C@H](Cn3cnc4cc(F)ccc43)C2)cc1 [compound 114, trans-(3-((5-fluoro-1H-benzo[d]imidazol-1-yl)methyl)cyclobutyl)((S)-3-(p-tolyl)isoxazolidin-2-yl)methanone]",174,34
"O=C([C@H]1C[C@H](Cn2cnc3cc(F)ccc32)C1)N1OCC[C@H]1c1cc(F)cc(F)c1 [compound 115, trans-((S)-3-(3,5-difluorophenyl)isoxazolidin-2-yl)(3-((5-fluoro-1H-benzo[d]imidazol-1-yl)methyl)cyclobutyl)methanone]",138,31
"N#Cc1cc(F)cc([C@@H]2CCON2C(=O)[C@H]2C[C@H](Cn3cnc4cc(F)ccc43)C2)c1 [compound 116, trans-3-fluoro-5-((S)-2-(3-((5-fluoro-1H-benzo[d]imidazol-1-yl)methyl)cyclobutane-1-carbonyl)isoxazolidin-3-yl)benzonitrile]",491,57
"Cc1ccc([C@@H]2CCON2C(=O)[C@H]2CC[C@H](Cn3nc(C)cc3C)CC2)cc1 [compound 117, trans-(4-((3,5-dimethyl-1H-pyrazol-1-yl)methyl)cyclohexyl)((S)-3-(p-tolyl)isoxazolidin-2-yl)methanone]",54,35
"Cc1cc(C)n(C[C@H]2CC[C@H](C(=O)N3OCC[C@H]3c3cc(F)cc(F)c3)CC2)n1 [compound 118, trans-((S)-3-(3,5-difluorophenyl)isoxazolidin-2-yl)(4-((3,5-dimethyl-1H-pyrazol-1-yl)methyl)cyclohexyl)methanone]",30,23
"Cc1cc(C)n(C[C@H]2CC[C@H](C(=O)N3OCC[C@H]3c3cc(F)cc(C#N)c3)CC2)n1 [compound 119, trans-3-((S)-2-(4-((3,5-dimethyl-1H-pyrazol-1-yl)methyl)cyclohexane-1-carbonyl)isoxazolidin-3-yl)-5-fluorobenzonitrile]",54,27
"COc1ccc2c(ccn2C[C@H]2CC[C@H](C(=O)N3OCC[C@H]3c3cc(F)cc(C#N)c3)CC2)n1 [compound 120, trans-3-fluoro-5-[(3S)-2-[4-[(5-methoxypyrrolo[3,2-b]pyridin-1-yl)methyl]cyclohexanecarbonyl]isoxazolidin-3-yl]benzonitrile]",6,41
"N#Cc1cncc([C@@H]2CCON2C(=O)[C@H]2CC[C@H](Cn3cc(C#N)ccc3=O)CC2)c1 [compound 122, trans-1-[[4-[(3S)-3-(5-cyano-3-pyridyl)isoxazolidine-2-carbonyl]cyclohexyl]methyl]-6-oxo-pyridine-3-carbonitrile]",797,125
"N#Cc1cncc([C@@H]2CCON2C(=O)[C@H]2CC[C@H](Cn3ccc4ncc(F)cc43)CC2)c1 [compound 123, trans-5-((S)-2-(4-((6-fluoro-1H-pyrrolo[3,2-b]pyridin-1-yl)methyl)cyclohexane-1-carbonyl)isoxazolidin-3-yl)nicotinonitrile]",12,46
"Cc1cc(C)n(-c2cc(C[C@H]3CC[C@H](C(=O)N4OCC[C@H]4c4cc(F)cc(C#N)c4)CC3)ncn2)n1 [compound 124, trans-3-[(3S)-2-[4-[[6-(3,5-dimethylpyrazol-1-yl)pyrimidin-4-yl]methyl]cyclohexanecarbonyl]isoxazolidin-3-yl]-5-fluoro-benzonitrile]",68,26
"Cc1cc(C)n(-c2cc(C[C@H]3CC[C@H](C(=O)N4OCC[C@H]4c4cc(F)cc(F)c4)CC3)ncn2)n1 [compound 125, trans-[(3S)-3-(3,5-difluorophenyl)isoxazolidin-2-yl]-[4-[[6-(3,5-dimethylpyrazol-1-yl)pyrimidin-4-yl]methyl]cyclohexyl]methanone]",16,9
"N#Cc1cncc([C@@H]2CCON2C(=O)[C@H]2CC[C@H](Cn3ncc4cc(F)ccc43)CC2)c1 [compound 126, trans-5-((S)-2-(4-((5-fluoro-1H-indazol-1-yl)methyl)cyclohexane-1-carbonyl)isoxazolidin-3-yl)nicotinonitrile]",29,37
"N#Cc1cncc([C@@H]2CCON2C(=O)[C@H]2CC[C@H](Cn3cc4ccc(C#N)cc4n3)CC2)c1 [compound 127, trans-2-((4-((S)-3-(5-cyanopyridin-3-yl)isoxazolidine-2-carbonyl)cyclohexyl)methyl)-2H-indazole-6-carbonitrile]",15,29
"COc1cnc2ccn(C[C@H]3CC[C@H](C(=O)N4OCC[C@H]4c4cc(F)cc(C#N)c4)CC3)c2c1 [compound 128, trans-3-fluoro-5-[(3S)-2-[4-[(6-methoxypyrrolo[3,2-b]pyridin-1-yl)methyl]cyclohexanecarbonyl]isoxazolidin-3-yl]benzonitrile]",4,22
"N#Cc1cc(F)cc([C@@H]2CCON2C(=O)[C@H]2CC[C@H](Cn3ccc4ncc(O)cc43)CC2)c1 [compound 129, trans-3-fluoro-5-[(3S)-2-[4-[(6-hydroxypyrrolo[3,2-b]pyridin-1-yl)methyl]cyclohexanecarbonyl]isoxazolidin-3-yl]benzonitrile]",7,29
"N#Cc1cncc([C@@H]2CCON2C(=O)[C@H]2CC[C@H](Cn3ccc4c(F)cc(C#N)cc43)CC2)c1 [compound 130, trans-1-((4-((S)-3-(5-cyanopyridin-3-yl)isoxazolidine-2-carbonyl)cyclohexyl)methyl)-4-fluoro-1H-indole-6-carbonitrile]",2,11
"Cc1ccc([C@@H]2CCON2C(=O)[C@H]2CC[C@H](Cc3ccc(C)c(C(N)=O)c3)CC2)cc1 [compound 131, trans-2-methyl-5-[[4-[(3S)-3-(p-tolyl)isoxazolidine-2-carbonyl]cyclohexyl]methyl]benzamide]",5,15
"Cc1ccc(C[C@H]2CC[C@H](C(=O)N3OCC[C@H]3c3cc(F)cc(F)c3)CC2)cc1C(N)=O [compound 132, trans-5-[[4-[(3S)-3-(3,5-difluorophenyl)isoxazolidine-2-carbonyl]cyclohexyl]methyl]-2-methyl-benzamide]",4,13
"Cc1ccc(C[C@H]2CC[C@H](C(=O)N3OCC[C@H]3c3cc(F)cc(C#N)c3)CC2)cc1C(N)=O [compound 133, trans-5-[[4-[(3S)-3-(3-cyano-5-fluoro-phenyl)isoxazolidine-2-carbonyl]cyclohexyl]methyl]-2-methyl-benzamide]",8,8
"N#Cc1cnc2ccn(C[C@H]3CC[C@H](C(=O)N4OCC[C@H]4c4cnccn4)CC3)c2c1 [compound 134, trans-1-[[4-[(3S)-3-pyrazin-2-ylisoxazolidine-2-carbonyl]cyclohexyl]methyl]pyrrolo[3,2-b]pyridine-6-carbonitrile]",25,27
"Cc1ccc([C@@H]2CCON2C(=O)[C@H]2CC[C@H](Cc3cc(-n4ccnc4C)ncn3)CC2)cc1 [compound 136, trans-[4-[[6-(2-methylimidazol-1-yl)pyrimidin-4-yl]methyl]cyclohexyl]-[(3S)-3-(p-tolyl)isoxazolidin-2-yl]methanone]",26,26
"N#Cc1cnc2cnn(C[C@H]3CC[C@H](C(=O)N4OCC[C@H]4c4cnccn4)CC3)c2c1 [compound 137, trans-1-[[4-[(3S)-3-pyrazin-2-ylisoxazolidine-2-carbonyl]cyclohexyl]methyl]pyrazolo[4,3-b]pyridine-6-carbonitrile]",46,30
